Test results from PubChem BioAssay (NCI).
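Method: 48-hour compound exposure of cells in 96-well plates, five concentrations, linear interpolation of endpoints. GI50: concentration for 50% inhibition of growth. The concentration for full growth arrest is given as TGI.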

Key:
Experiment in all cases: DTP human tumour cell line panel, 48 h
OVCAR-4 ovarian = system: OVCAR-4 ovarian
RPMI-8226 leukemia = system: RPMI-8226 leukemia
M14 melanoma = system: M14 melanoma
A498 renal = system: A498 renal
SW-620 colon = system: SW-620 colon
SNB-75 CNS = system: SNB-75 CNS
MDA-MB-435 = system: MDA-MB-435
NCI/ADR-RES ovarian = system: NCI/ADR-RES ovarian
MDA-MB-231 breast = system: MDA-MB-231 breast
BT-549 breast = system: BT-549 breast

Structure (SMILES) | TGI (OVCAR-4 ovarian) [µM] | TGI (RPMI-8226 leukemia) [µM] | TGI (M14 melanoma) [µM] | TGI (A498 renal) [µM] | TGI (SW-620 colon) [µM] | TGI (SNB-75 CNS) [µM] | GI50 (OVCAR-4 ovarian) [µM] | GI50 (MDA-MB-435) [µM] | TGI (MDA-MB-435) [µM] | GI50 (NCI/ADR-RES ovarian) [µM] | TGI (NCI/ADR-RES ovarian) [µM] | GI50 (MDA-MB-231 breast) [µM] | TGI (MDA-MB-231 breast) [µM] | GI50 (M14 melanoma) [µM] | GI50 (A498 renal) [µM] | GI50 (BT-549 breast) [µM] | TGI (BT-549 breast) [µM] | GI50 (SW-620 colon) [µM] | GI50 (SNB-75 CNS) [µM] | GI50 (RPMI-8226 leukemia) [µM]
O=C1C2c3[nH]c4ccccc4c3C3CCCCCC3C2C(=O)N1c1ccccc1 (stereo unspecified) | > 24.5 | > 100 | > 49.3 | > 57.1 | > 100 | 8.41 |  |  |  |  |  |  |  |  |  |  |  |  |  | 
CCN(CC)CCN1C(=O)C2C3C(=O)CC(C)(CC3C)C2C1=O (stereo unspecified) | > 100 |  | > 100 | > 100 | > 100 | > 100 | > 100 | > 100 | > 100 | > 100 | > 100 | > 100 | > 100 | > 100 | > 100 | > 100 | > 100 | > 100 | > 100 | 
Cc1ccc(-c2nc3cc(Cl)c(Cl)cc3nc2C#N)cc1 | > 100 |  | > 100 | > 100 | > 100 | > 100 | > 100 | > 100 | > 100 | 81.2 | > 100 | > 100 | > 100 | > 100 | > 100 | > 100 | > 100 | > 100 | > 100 | 
CCCCCCCCCC(CCCC(O)CC(=O)O)OC1OC(COC2OC(C)C(OC(C)=O)C(O)C2O)C(O)C(O)C1OC1OC(CO)C(O)C(O)C1OC1OC(C)C(OC(=O)CC(C)C)C(O)C1O (stereo unspecified) | > 35 | > 35 | > 35 |  | > 35 | > 35 | > 35 | > 35 | > 35 | > 35 | > 35 | > 35 | > 35 | > 35 |  | > 35 | > 35 | > 35 | > 35 | > 35
Clc1ccc2ncc(-c3cccc(NC4CNC4)n3)n2c1 |  |  | 25.5 | 19.7 | 15.8 | 27.8 |  | 4.76 | 21.5 | 33.5 | > 100 | 6.48 | 75.1 | 8.87 | 5.7 | 10.5 | 31.8 | 2.92 | 10.6 | 
CCOc1ccc(OCC)c([P+](c2ccccc2)(c2ccccc2)c2ccccc2)c1 | 29 | 2.36 | 12.6 | 4.42 | 13.1 | 10.6 |  |  |  |  |  |  |  |  |  |  |  |  |  | 
CN(C)C=NC1CCC(C(C)(C)C)CC1 (stereo unspecified) | 51.1 |  | 33.6 | 49.6 | 34.4 | 34.9 |  |  | 33.3 |  | 32.8 |  | 26.7 |  |  |  | 34 |  |  | 
CC(=O)OCC1OC(OCc2ccccc2)C(Br)C(OC(C)=O)C1OC(C)=O (stereo unspecified) | > 100 | > 100 | > 100 | > 100 | > 100 |  |  |  |  |  |  |  |  |  |  |  |  |  |  | 
CC1=C(C(=O)NCc2ccccc2)C(c2ccccc2C)C(C(=O)NCc2ccccc2)=C(C)N1 | > 63.7 | > 100 | 42.8 | > 100 | > 100 | > 94.1 |  |  |  |  |  |  |  |  |  |  |  |  |  | 
Cc1cc(=O)n(-c2c(C)cccc2Cl)c(/C=C(\O)c2ccncc2)n1 | > 100 |  | > 100 | > 100 | > 100 | > 100 |  |  |  |  |  |  |  |  |  |  |  |  |  | 
Cc1ccc(-c2nc(N3CCNCC3)c3oc(-c4ccccc4)nc3n2)cc1 | 4.06 | 4.77 | 3.31 | 28.8 | 3.88 | 3.02 | 1.89 | 1.76 | 3.22 |  |  | 1.62 | 3.06 | 1.78 | 14.5 | 13.8 | 31.6 | 2.06 | 1.62 | 2.16
COc1cc(/C=C/C(=O)/C=C/c2cc3ccc(Cl)cc3n(Cc3ccccc3)c2=O)ccc1O | 37.8 | 10.9 | 4.67 |  | 4.33 | 7.42 | 2.48 | 0.862 | 4.32 | 2.86 | > 100 | 2.93 | 16.6 | 1.83 |  | 1.69 | 4.53 | 1.56 | 2.52 | 1.23
C/C(=N\n1c(O)c(C#N)cc(C#N)c1=O)c1ccncc1 |  | > 100 | > 100 |  | > 100 |  |  | > 100 | > 100 | > 100 | > 100 | > 100 | > 100 | > 100 |  |  |  | > 100 |  | > 100
COc1ccc(S(=O)(=O)N[C@H](C(=O)O)c2ccccc2)cc1 | > 100 | > 100 | > 100 |  | > 100 | > 100 |  |  |  |  |  |  |  |  |  |  |  |  |  | 
O=C1c2ccccc2C(=O)c2c1ccc1c(=O)n(-c3ccccc3C(F)(F)F)nnc21 | 2.21 |  |  | 3.65 | > 100 | 15.5 | 1 | 1.66 | 3.1 | 2.05 | 9.23 | 2.07 | 7.04 |  | 1.76 | 1.81 | 6.8 | 3.43 | 1.56 | 
O=C(N/C(=C\c1ccccc1Cl)c1nc2ccccc2[nH]1)c1ccccc1 | > 100 |  | 54.3 |  | > 100 |  |  |  |  |  |  |  |  |  |  |  |  |  |  | 
COC(=O)C1(C)CC2C(C)(CCC3(C)C4=CC=C5C(=CC(=O)C(O)=C5C)C4(C)CCC23C)CC1O (stereo unspecified) | 3.4 |  | 3.26 | 3.51 |  | 3.54 |  |  | 2.31 |  | 2.93 |  | 1.77 |  |  |  |  |  |  | 
CCOC(=O)C(NO)C(Sc1ccccc1)c1ccc(OC)cc1 (stereo unspecified) |  | > 100 | > 100 |  | > 100 | > 100 |  |  |  |  |  |  |  |  |  |  |  |  |  | 
CCCCCC[C@@H](C)Nc1nc2ccccc2c2occc12 |  | > 100 | 23.2 | 35.1 | 26.5 |  |  | 15.5 | 40.2 | 10.7 | 22.6 | 10.8 | 22.7 | 11.2 | 18.6 | 3.05 | 18.2 | 11.2 |  | 1.47
